“Also recorded” adds a separate entry of the source. Where two headings read alike, the source gives them in different places.
Legend:
p53-R282W = biological target: T1, p53-R282W (Homo sapiens, UniProt P04637, R282W); format: cell-based; settings: p53-R282W on PUMA promoter, agents 24 hr (FIG. 37 and FIG. 41)
T1 construct: pcDNA3.1 expressing human full length p53 was gift from Prof; Xin Lu; expressed in transfected cells; host or cells: H1299 (p53-null)

NCI60 cell lines = format: cell-based, human; settings: Struc. / WT / Null / Others, G150 retrieved by CellMiner
wtp53 = test: Real time qPCR of p53 targets, HCT116 cells; format: cell-based, human; settings: HCT116 expressing wtp53
Method: Total RNA was isolated from cells using Total RNA Purification Kit (B518651, Sangon Biotech). 1 μg total RNA was reverse-transcribed using the GoScript®™ Reverse Transciptase System (A5001, Promega) following manufacturer's protocol. PCR was performed in triplicate using SYBR green mix (Applied Biosystems), and a ViiA™ 7 Real-Time PCR System (Applied Biosystems) under the following conditions: 10 min at 95° C. followed by 40 cycles of 95° C. for 15 s and 60° C. for 1 min. Specificity of the PCR product was checked for each primer set and samples from the melting curve analysis. Expression levels of targeted genes were normalized relative to levels of β-actin adopting comparative Ct method.

p53-R172H = biological target: T2, p53-R172H (Mus musculus, UniProt P02340, R172H); format: cell-based
T2 construct: endogenous in cells; host or cells: mouse embryonic fibroblasts, Trp53-R172H/R172H
T2 sequence (P02340 whole entry R172H): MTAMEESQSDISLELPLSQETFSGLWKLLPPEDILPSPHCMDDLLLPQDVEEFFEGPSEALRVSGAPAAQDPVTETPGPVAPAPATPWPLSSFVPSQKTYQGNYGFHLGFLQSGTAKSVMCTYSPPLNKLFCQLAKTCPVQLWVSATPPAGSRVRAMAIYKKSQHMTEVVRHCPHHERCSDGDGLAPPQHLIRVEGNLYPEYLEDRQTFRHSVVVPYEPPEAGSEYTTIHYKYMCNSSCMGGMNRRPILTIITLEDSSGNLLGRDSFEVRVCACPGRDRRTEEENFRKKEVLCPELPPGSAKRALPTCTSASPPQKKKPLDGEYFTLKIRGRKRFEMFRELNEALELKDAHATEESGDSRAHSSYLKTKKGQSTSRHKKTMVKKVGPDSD

Compound	enhancement of p53 transcriptional activity in luciferase assay (p53-R282W)	also measured
COc1ccc(/C=C/c2nc(NCCCN(C)C)c3ccccc3n2)cc1 [CP31398]	1.5 times	–
Cc1c2ccncc2c(C)c2c1[nH]c1ccccc12 [Ellipticine]	3.3 times	–
C/C(=N\NC(=S)N1CCC1)c1ccccn1 [NSC319726]	1.5 times	selectivity among NCI60 cell lines by p53 status (G150), in words (NCI60 cell lines): none of the reported compounds tested, including PRIMA-1 and NSC319726 survived the 4C screening; also recorded: No significant association
COc1ccc(C2=N[C@@H](c3ccc(Cl)cc3)[C@@H](c3ccc(Cl)cc3)N2C(=O)N2CCNC(=O)C2)c(OC(C)C)c1 [Nutlin3]	–	mRNA levels of p53 targets, in words (wtp53): significantly enhanced PUMA, PIG3, CDKN1A and MDM2 mRNA levels
O=C1C2CCN(CC2)C1(CO)CO [PRIMA-1]	negligible	selectivity among NCI60 cell lines by p53 status (G150), in words (NCI60 cell lines): none of the reported compounds tested, including PRIMA-1 and NSC319726 survived the 4C screening; selectivity among NCI60 cell lines by p53 status (G150), in words (NCI60 cell lines; listed as NSC281668): No significant association
CCn1c2ccccc2c2cc(CNC)ccc21 [PhiKan083]	negligible	–
OCc1ccc(-c2ccc(-c3ccc(CO)s3)o2)s1 [RITA]	negligible	–
C=Cc1nc2ccccc2c(=O)[nH]1 [STIMA-1]	negligible	–
MIRA-1	negligible	–
potassium arsenite [NSC3060]	–	PAb246 epitope (folded mouse p53-R172H), in words (p53-R172H): measurable increase of PAb1620 epitopes and PAb246 (for mouse p53-R172H) epitopes
